Starred links: 1 amine or outer side, 2 acyl side, 3 side chain; linkers in the order of their positions; H or OH if unused. Positions of bridges follow the written chain, without caps; N, C: chain ends. Non-standard residues stand in square brackets, D forms with d. Residues, ends and D or L forms follow the SMILES beside them. *: point of attachment. hTyr(3S-OH,4S-OH,3'-OSO3H) = N[C@H](C(=O)O)[C@H](O)[C@@H](O)c1ccc(O)c(OS(=O)(=O)O)c1; Orn(4R-OH,5R-OH) = O=C([C@H](C[C@@H](O)[C@@H](O)N[*:3])N[*:1])[*:2]; Pro(3S-OH,4S-Me) = C[C@H]1CN[C@H](C(=O)O)[C@H]1O; X1 = CCCCCOc1ccc(-c2cc(-c3ccc(C(=O)*)cc3)no2)cc1; Gln(3R-OH) = NC(=O)C[C@@H](O)[C@H](N)C(=O)O; Hyp = O=C(O)[C@@H]1C[C@@H](O)CN1
What was measured:
Type in all cases: functional
Aspergillus tubingensis [1] = assay: Antifungal activity against Aspergillus tubingensis isolate CM-3123 obtained from respiratory tract infection of patient assessed as inhibition of hyphal growth after 48 hrs; details: isolate CM-3123, 48 h, read-out: MEC
Aspergillus tubingensis [2] = assay: Antifungal activity against Aspergillus tubingensis isolate CM-3585 assessed as inhibition of hyphal growth after 48 hrs; details: isolate CM-3585, 48 h, read-out: MEC
Aspergillus tubingensis [3] = assay: Antifungal activity against Aspergillus tubingensis isolate CM-3125 obtained from respiratory tract infection of patient assessed as inhibition of hyphal growth after 48 hrs; details: isolate CM-3125, 48 h, read-out: MEC
Aspergillus tubingensis [4] = assay: Antifungal activity against Aspergillus tubingensis isolate CM-3654 obtained from blood culture assessed as inhibition of hyphal growth after 48 hrs; details: isolate CM-3654, 48 h, read-out: MEC
Aspergillus tubingensis [5] = assay: Antifungal activity against Aspergillus tubingensis isolate CM-4005 assessed as inhibition of hyphal growth after 48 hrs; details: isolate CM-4005, 48 h, read-out: MEC
Aspergillus tubingensis [6] = assay: Antifungal activity against Aspergillus tubingensis isolate CM-4296 obtained from respiratory tract infection of patient assessed as inhibition of hyphal growth after 48 hrs; details: isolate CM-4296, 48 h, read-out: MEC
Aspergillus tubingensis [7] = assay: Antifungal activity against Aspergillus tubingensis isolate CM-4897 obtained from blood culture assessed as inhibition of hyphal growth after 48 hrs; details: isolate CM-4897, 48 h, read-out: MEC
Aspergillus tubingensis [8] = assay: Antifungal activity against Aspergillus tubingensis isolate CM-4001 assessed as inhibition of hyphal growth after 48 hrs; details: isolate CM-4001, 48 h, read-out: MEC
Aspergillus foetidus [9] = assay: Antifungal activity against Aspergillus foetidus isolate CM-4995 obtained from prosthesis assessed as inhibition of hyphal growth after 48 hrs; details: isolate CM-4995, 48 h, read-out: MEC
Aspergillus tubingensis [10] = assay: Antifungal activity against Aspergillus tubingensis isolate CM-4352 obtained from respiratory tract infection of patient assessed as inhibition of hyphal growth after 48 hrs; details: isolate CM-4352, 48 h, read-out: MEC
Aspergillus foetidus [11] = assay: Antifungal activity against Aspergillus foetidus isolate CM-4002 assessed as inhibition of hyphal growth after 48 hrs; details: isolate CM-4002, 48 h, read-out: MEC
Aspergillus niger [12] = assay: Antifungal activity against Aspergillus niger isolate CM-4213 obtained from respiratory tract infection of patient assessed as inhibition of hyphal growth after 48 hrs; details: isolate CM-4213, 48 h, read-out: MEC
Aspergillus tubingensis [13] = assay: Antifungal activity against Aspergillus tubingensis isolate CM-4688 obtained from respiratory tract infection of patient assessed as inhibition of hyphal growth after 48 hrs; details: isolate CM-4688, 48 h, read-out: MEC
Aspergillus niger [14] = assay: Antifungal activity against Aspergillus niger isolate CM-3506 obtained from respiratory tract infection of patient assessed as inhibition of hyphal growth after 48 hrs; details: isolate CM-3506, 48 h, read-out: MEC
Aspergillus tubingensis [15] = assay: Antifungal activity against Aspergillus tubingensis isolate CM-4899 obtained from respiratory tract infection of patient assessed as inhibition of hyphal growth after 48 hrs; details: isolate CM-4899, 48 h, read-out: MEC
Aspergillus tubingensis [16] = assay: Antifungal activity against Aspergillus tubingensis isolate CM-5094 obtained from respiratory tract infection of patient assessed as inhibition of hyphal growth after 48 hrs; details: isolate CM-5094, 48 h, read-out: MEC
Aspergillus tubingensis [17] = assay: Antifungal activity against Aspergillus tubingensis isolate CM-4000 by broth dilution method assessed as inhibition of hyphal growth after 48 hrs; details: isolate CM-4000, 48 h, read-out: MEC
Aspergillus niger [18] = assay: Antifungal activity against Aspergillus niger isolate CM-3586 obtained from catheter of patient assessed as inhibition of hyphal growth after 48 hrs; details: isolate CM-3586, 48 h, read-out: MEC
Aspergillus foetidus [19] = assay: Antifungal activity against Aspergillus foetidus isolate CM-5264 obtained from respiratory tract infection of patient assessed as inhibition of hyphal growth after 48 hrs; details: isolate CM-5264, 48 h, read-out: MEC
Aspergillus niger [20] = assay: Antifungal activity against Aspergillus niger isolate CM-3672 obtained from cutaneous layer of patient assessed as inhibition of hyphal growth after 48 hrs; details: isolate CM-3672, 48 h, read-out: MEC
Aspergillus niger [21] = assay: Antifungal activity against Aspergillus niger isolate CM-4316 obtained from respiratory tract infection of patient assessed as inhibition of hyphal growth after 48 hrs; details: isolate CM-4316, 48 h, read-out: MEC
Aspergillus niger [22] = assay: Antifungal activity against Aspergillus niger isolate CM-3257 obtained from respiratory tract infection of patient assessed as inhibition of hyphal growth after 48 hrs; details: isolate CM-3257, 48 h, read-out: MEC
Aspergillus niger [23] = assay: Antifungal activity against Aspergillus niger isolate CM-4262 obtained from Ophthalmic assessed as inhibition of hyphal growth after 48 hrs; details: isolate CM-4262, 48 h, read-out: MEC
Aspergillus niger [24] = assay: Antifungal activity against Aspergillus niger isolate CM-3636 obtained from respiratory tract infection of patient assessed as inhibition of hyphal growth after 48 hrs; details: isolate CM-3636, 48 h, read-out: MEC
Aspergillus tubingensis [25] = assay: Antifungal activity against Aspergillus tubingensis isolate CM-3177 obtained from respiratory tract infection of patient assessed as inhibition of hyphal growth after 48 hrs; details: isolate CM-3177, 48 h, read-out: MEC
Aspergillus tubingensis [26] = assay: Antifungal activity against Aspergillus tubingensis isolate CM-4003 assessed as inhibition of hyphal growth after 48 hrs; details: isolate CM-4003, 48 h, read-out: MEC
Aspergillus tubingensis [27] = assay: Antifungal activity against Aspergillus tubingensis isolate CM-3507 obtained from respiratory tract infection of patient assessed as inhibition of hyphal growth after 48 hrs; details: isolate CM-3507, 48 h, read-out: MEC
Aspergillus tubingensis [28] = assay: Antifungal activity against Aspergillus tubingensis isolate CM-3810 obtained from respiratory tract infection of patient assessed as inhibition of hyphal growth after 48 hrs; details: isolate CM-3810, 48 h, read-out: MEC
Aspergillus niger [29] = assay: Antifungal activity against Aspergillus niger isolate CM-3236 obtained from respiratory tract infection of patient assessed as inhibition of hyphal growth after 48 hrs; details: isolate CM-3236, 48 h, read-out: MEC
Aspergillus niger [30] = assay: Antifungal activity against Aspergillus niger isolate CM-4004 obtained from assessed as inhibition of hyphal growth after 48 hrs; details: isolate CM-4004, 48 h, read-out: MEC
Aspergillus tubingensis [31] = assay: Antifungal activity against Aspergillus tubingensis isolate CM-4264 obtained from blood culture assessed as inhibition of hyphal growth after 48 hrs; details: isolate CM-4264, 48 h, read-out: MEC
Aspergillus niger [32] = assay: Antifungal activity against Aspergillus niger isolate CM-3641 obtained from respiratory tract infection of patient assessed as inhibition of hyphal growth after 48 hrs; details: isolate CM-3641, 48 h, read-out: MEC
Aspergillus niger [33] = assay: Antifungal activity against Aspergillus niger isolate CM-3551 obtained from respiratory tract infection of patient assessed as inhibition of hyphal growth after 48 hrs; details: isolate CM-3551, 48 h, read-out: MEC
Aspergillus niger [34] = assay: Antifungal activity against Aspergillus niger isolate CM-5095 obtained from respiratory tract infection of patient assessed as inhibition of hyphal growth after 48 hrs; details: isolate CM-5095, 48 h, read-out: MEC

Structure (SMILES) | minimal effective concentration (Aspergillus tubingensis [1]) [µg/mL] | minimal effective concentration (Aspergillus tubingensis [2]) [µg/mL] | minimal effective concentration (Aspergillus tubingensis [3]) [µg/mL] | minimal effective concentration (Aspergillus tubingensis [4]) [µg/mL] | minimal effective concentration (Aspergillus tubingensis [5]) [µg/mL] | minimal effective concentration (Aspergillus tubingensis [6]) [µg/mL] | minimal effective concentration (Aspergillus tubingensis [7]) [µg/mL] | minimal effective concentration (Aspergillus tubingensis [8]) [µg/mL] | minimal effective concentration (Aspergillus foetidus [9]) [µg/mL] | minimal effective concentration (Aspergillus tubingensis [10]) [µg/mL] | minimal effective concentration (Aspergillus foetidus [11]) [µg/mL] | minimal effective concentration (Aspergillus niger [12]) [µg/mL] | minimal effective concentration (Aspergillus tubingensis [13]) [µg/mL] | minimal effective concentration (Aspergillus niger [14]) [µg/mL] | minimal effective concentration (Aspergillus tubingensis [15]) [µg/mL] | minimal effective concentration (Aspergillus tubingensis [16]) [µg/mL] | minimal effective concentration (Aspergillus tubingensis [17]) [µg/mL] | minimal effective concentration (Aspergillus niger [18]) [µg/mL] | minimal effective concentration (Aspergillus foetidus [19]) [µg/mL] | minimal effective concentration (Aspergillus niger [20]) [µg/mL] | further results
CC[C@H](C)C[C@H](C)CCCCCCCCC(=O)N[C@H]1C[C@@H](O)[C@@H](NCCN)NC(=O)[C@@H]2[C@@H](O)CCN2C(=O)[C@H]([C@H](O)CCN)NC(=O)[C@H]([C@H](O)[C@@H](O)c2ccc(O)cc2)NC(=O)[C@@H]2C[C@@H](O)CN2C(=O)[C@H]([C@@H](C)O)NC1=O [CASPOFUNGIN] | 0.25 | 0.37 | 0.05 | 0.14 | 0.5 | 0.25 | 0.1 | 0.11 | 0.14 | 0.15 | 0.14 | 0.39 | 0.18 | 0.15 | 0.1 | 0.19 | 0.1 | 1 | 0.06 | 0.15 | minimal effective concentration (Aspergillus niger [21]): 0.25 µg/mL; minimal effective concentration (Aspergillus niger [22]): 0.25 µg/mL; minimal effective concentration (Aspergillus niger [23]): 0.13 µg/mL; minimal effective concentration (Aspergillus niger [24]): 0.25 µg/mL; minimal effective concentration (Aspergillus tubingensis [25]): 0.05 µg/mL; minimal effective concentration (Aspergillus tubingensis [26]): 0.25 µg/mL; minimal effective concentration (Aspergillus tubingensis [27]): 0.06 µg/mL; minimal effective concentration (Aspergillus tubingensis [28]): 0.5 µg/mL; minimal effective concentration (Aspergillus niger [29]): 0.25 µg/mL; minimal effective concentration (Aspergillus niger [30]): 0.1 µg/mL; minimal effective concentration (Aspergillus tubingensis [31]): 0.03 µg/mL; minimal effective concentration (Aspergillus niger [32]): 0.5 µg/mL; minimal effective concentration (Aspergillus niger [33]): 0.03 µg/mL; minimal effective concentration (Aspergillus niger [34]): 0.25 µg/mL
CCCCCOc1ccc(-c2cc(-c3ccc(C(=O)N[C@H]4C[C@@H](O)[C@@H](O)NC(=O)[C@@H]5[C@@H](O)[C@@H](C)CN5C(=O)[C@H]([C@H](O)CC(N)=O)NC(=O)[C@H]([C@H](O)[C@@H](O)c5ccc(O)c(OS(=O)(=O)O)c5)NC(=O)[C@@H]5C[C@@H](O)CN5C(=O)[C@H]([C@@H](C)O)NC4=O)cc3)no2)cc1 [MICAFUNGIN] (X1-[Orn(4R-OH,5R-OH)]T[Hyp][hTyr(3S-OH,4S-OH,3'-OSO3H)][Gln(3R-OH)][Pro(3S-OH,4S-Me)]; lactam 1-C) | 0.03 | 0.03 | 0.03 | 0.03 | 0.03 | 0.03 | 0.03 | 0.03 | 0.03 | 0.03 | 0.03 | 0.03 | 0.03 | 0.03 | 0.05 | 0.03 | 0.03 | 0.03 | 0.03 | 0.03 | minimal effective concentration (Aspergillus niger [21]): 0.03 µg/mL; minimal effective concentration (Aspergillus niger [22]): 0.03 µg/mL; minimal effective concentration (Aspergillus niger [23]): 0.03 µg/mL; minimal effective concentration (Aspergillus niger [24]): 0.03 µg/mL; minimal effective concentration (Aspergillus tubingensis [25]): 0.03 µg/mL; minimal effective concentration (Aspergillus tubingensis [26]): 0.03 µg/mL; minimal effective concentration (Aspergillus tubingensis [27]): 0.03 µg/mL; minimal effective concentration (Aspergillus tubingensis [28]): 0.03 µg/mL; minimal effective concentration (Aspergillus niger [29]): 0.03 µg/mL; minimal effective concentration (Aspergillus niger [30]): 0.03 µg/mL; minimal effective concentration (Aspergillus tubingensis [31]): 0.03 µg/mL; minimal effective concentration (Aspergillus niger [32]): 0.03 µg/mL; minimal effective concentration (Aspergillus niger [33]): 0.03 µg/mL; minimal effective concentration (Aspergillus niger [34]): 0.03 µg/mL

Reference: ChEMBL document CHEMBL1649226, “Species identification and antifungal susceptibility patterns of species belonging to Aspergillus section Nigri” (2009)
